Molecules are shown by their SMILES. Where two headings read alike, the source gives them in different places. Marks after values point to notes of the source that are not given here. Bounds are passed on as bounds.

The target in one assay is T1, CDK9/CycT1 (Homo sapiens, UniProt P50750).
T1 construct: Recombinant full-length His-tagged human CDK9 and CycT1; His; purchased Invitrogen PV4131; host or cells: insect cells
The experiment in a line: CDK9/CycT1 high ATP kinase assay (Method 1b, TR-FRET, 2 mM ATP). It counts as biochemical. As to conditions: for IC50: Method 1b, 2 mM ATP; for Selectivity high ATP CDK9 over high ATP CDK2: IC50 (high ATP CDK2)/IC50 (high ATP CDK9): Methods 1b and 2b, minimal values. The method, then:
1b. CDK9/CycT1 High ATP Kinase Assay
CDK9/CycT1-inhibitory activity of compounds of the present invention at a high ATP concentration after preincubation of enzyme and test compounds was quantified employing the CDK9/CycT1 TR-FRET assay as described in the following paragraphs.
Recombinant full-length His-tagged human CDK9 and CycT1, expressed in insect cells and purified by Ni-NTA affinity chromatography, were purchase from Invitrogen (Cat. No PV4131). As substrate for the kinase reaction biotinylated peptide biotin-Ttds-YISPLKSPYKISEG (C-terminus in amid form) was used which can be purchased e.g. from the company JERINI peptide technologies (Berlin, Germany). For the assay 50 nl of a 100 fold concentrated solution of the test compound in DMSO was pipetted into a black low volume 384 well microtiter plate (Greiner Bio-One, Frickenhausen, Germany), 2 μl of a solution of CDK9/CycT1 in aqueous assay buffer [50 mM Tris/HCl pH 8.0, 10 mM MgCl2, 1.0 mM dithiothreitol, 0.1 mM sodium ortho-vanadate, 0.010% (v/v) Nonidet-P40 (Sigma)] were added and the mixture was incubated for 15 min at 22° C. to allow pre-binding of the test compounds to the enzyme before the start of the kinase reaction. Then the kinase reaction was started by the addition of 3 μl of a solution of adenosine-tri-phosphate (ATP, 3.3 mM=> final conec. in the 5 μl assay volume is 2 mM) and substrate (1.67 μM=> final conc. in the 5 μl assay volume is 1 μM) in assay buffer and the resulting mixture was incubated for a reaction time of 25 min at 22° C. The concentration of CDK9/CycT1 was adjusted depending of the activity of the enzyme lot and was chosen appropriate to have the assay in the linear range, typical concentrations were in the range of 0.5 μg/mL. The reaction was stopped by the addition of 5 μl of a solution of TR-FRET detection reagents (0.2 μM streptavidine-XL665 [Cisbio Bioassays, Codolet, France] and 1 nM anti-RB(pSer807/pSer811)-antibody from BD Pharmingen [#558389] and 1.2 nM LANCE EU-W1024 labeled anti-mouse IgG antibody [Perkin-Elmer, product no. AD0077]) in an aqueous EDTA-solution (100 mM EDTA, 0.2% (w/v) bovine serum albumin in 100 mM HEPES pH 7.5).
The resulting mixture was incubated 1 h at 22° C. to allow the formation of complex between the phosphorylated biotinylated peptide and the detection reagents. Subsequently the amount of phosphorylated substrate was evaluated by measurement of the resonance energy transfer from the Eu-chelate to the streptavidine-XL. Therefore, the fluorescence emissions at 620 nm and 665 nm after excitation at 350 nm was measured in a HTRF reader, e.g. a Rubystar (BMG Labtechnologies, Offenburg, Germany) or a Viewlux (Perkin-Elmer). The ratio of the emissions at 665 nm and at […] was taken as the measure for the amount of phosphorylated substrate. The data were normalised (enzyme reaction without inhibitor=0% inhibition, all other assay components but no enzyme=100% inhibition).

Assay [1] addresses T2, human PTEFb (CDK9/Cyclin T1) (Homo sapiens, UniProt P50750).
T2 construct: purchased ProQinase, Freiburg, Germany
The experiment in a line: Surface Plasmon Resonance PTEFb. It counts as binding. As to conditions: for Target resident time: 1/koff; for koff: read-out: Dissociation rate constant koff. From the text: 8. Surface Plasmon Resonance PTEFb
The ability of the compounds according to the invention to bind human PTEFb may be determined using surface plasmon resonance (SPR). KD values and koff values may be measured using a Biacoret T200 instrument (GE Healthcare, Uppsala, Sweden).
For SPR measurements, recombinant human PTEFb (CDK9/Cyclin T1 recombinant human active protein kinase purchased from ProQinase, Freiburg, Germany) is immobilized using standard amine coupling (Johnsson B et al, Anal Biochem. 1991 Nov. 1; 198(2):268-77). Briefly, carboxymethylated dextran biosensor chips (CM7, GE Healthcare) are activated with N-ethyl-N′-(3-dimethylaminopropyl)-carbodiimide hydrochloride (EDC) and N-hydroxysuccinimide (NHS) according to the supplier's instructions. Human PTEFb is diluted in 1×HBS-EP+(GE Healthcare) into 30 μg/ml and injected on the activated chip surface. Subsequently, a 1:1 solution of 1 M ethanolamine-HCl (GE Healthcare) and 1×HBS-EP is injected to block unreacted groups, resulting in approximately 4000 response units (RU) of immobilized protein. A reference surface is generated by treatment with NHS-EDC and ethanolamine-HCl. Compounds are dissolved in 100% dimethylsulfoxide (DMSO, Sigma-Aldrich, Germany) to a concentration of 10 mM and subsequently diluted in running buffer (1×HBS-EP+pH 7.4 [generated from HBS-EP+Buffer 10×(GE Healthcare): 0.1 M HEPES, 1.5 M NaCl, 30 mM EDTA and 0.5% v/v Surfactant P20], 1% v/v DMSO). For kinetic measurements, four-fold serial dilutions of compound (0.39 nM to 100 nM) are injected over immobilized protein. […] Compound concentrations are injected for 60 s followed by a dissociation time of 1800 s. The resulting sensorgrams are double-referenced against the reference surface as well as against blank injections.
The double-referenced sensorgrams are fit to a simple reversible Langmuir 1:1 reaction mechanism as implemented in the Biacore® T200 evaluation software 2.0 (GE Healthcare). In cases were full compound dissociation has not occurred at the end of the dissociation phase, the Rmax parameter (response at saturation) is fit as local variable. In all other cases, Rmax is fit as global variable.

T1 sequence (P50750 whole entry): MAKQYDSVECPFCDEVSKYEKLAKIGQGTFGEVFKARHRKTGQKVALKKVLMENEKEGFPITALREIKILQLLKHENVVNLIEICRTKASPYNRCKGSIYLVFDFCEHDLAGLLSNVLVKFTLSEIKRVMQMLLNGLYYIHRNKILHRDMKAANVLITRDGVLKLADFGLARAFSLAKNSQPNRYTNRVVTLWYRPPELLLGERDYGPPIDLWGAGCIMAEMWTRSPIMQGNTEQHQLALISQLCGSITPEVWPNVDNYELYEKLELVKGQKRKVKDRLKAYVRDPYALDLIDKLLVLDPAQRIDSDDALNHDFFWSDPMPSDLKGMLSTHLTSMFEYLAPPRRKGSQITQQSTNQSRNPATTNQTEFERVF
T1 sequence (O60563 whole entry partner): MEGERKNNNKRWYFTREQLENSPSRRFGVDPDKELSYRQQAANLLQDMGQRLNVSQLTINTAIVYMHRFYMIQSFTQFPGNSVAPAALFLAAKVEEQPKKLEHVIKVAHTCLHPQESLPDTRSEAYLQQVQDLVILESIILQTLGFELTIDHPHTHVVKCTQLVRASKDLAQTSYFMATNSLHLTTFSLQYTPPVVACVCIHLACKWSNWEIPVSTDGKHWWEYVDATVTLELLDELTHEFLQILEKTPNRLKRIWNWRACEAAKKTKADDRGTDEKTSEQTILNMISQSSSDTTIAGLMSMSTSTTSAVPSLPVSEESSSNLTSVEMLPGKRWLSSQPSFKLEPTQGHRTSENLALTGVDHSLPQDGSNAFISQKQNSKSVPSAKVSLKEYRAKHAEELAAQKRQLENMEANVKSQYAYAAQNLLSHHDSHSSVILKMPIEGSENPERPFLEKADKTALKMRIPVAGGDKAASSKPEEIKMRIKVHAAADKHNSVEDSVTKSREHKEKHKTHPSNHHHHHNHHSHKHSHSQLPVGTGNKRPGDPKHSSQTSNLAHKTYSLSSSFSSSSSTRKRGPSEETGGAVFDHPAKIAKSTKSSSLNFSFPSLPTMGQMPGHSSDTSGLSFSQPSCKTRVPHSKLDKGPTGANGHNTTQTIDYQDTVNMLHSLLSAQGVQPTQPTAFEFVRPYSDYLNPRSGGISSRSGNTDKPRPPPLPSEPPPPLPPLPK
T2 sequence (P50750 whole entry): as the sequence (P50750 whole entry) above
T2 sequence (O60563 whole entry partner): as the sequence (O60563 whole entry partner) above

Usually IC50 stands for the concentration at which inhibition is half-maximal. The term koff denotes a measure of how fast the partners let go of each other. Regarding `CS(=N)(Cc1cc2nc(c1)OCCCOc1cc(F)ccc1-c1cc(ncc1F)N2)=NCCCO` (racemic) [Example 2, (rac)-3-(2-{[15,19-difluoro-3,4-dihydro-2H,11H-10,6-(azeno)-12,16-(metheno)-1,5,11,13-benzodioxadiazacyclooctadecin-8-yl]methyl}-2-methyl-2λ^6-diazathia-1,2-dien-1-yl)propan-1-ol], at CDK9/CycT1, the IC50 was determined as 2 nM and the “Selectivity high ATP CDK9 over high ATP CDK2: IC50 (high ATP CDK2)/IC50 (high ATP CDK9)” value (“Selectivity high ATP CDK9” below) was found to be 123. Also, in assay [1] (25° C., Parameters B), the Target resident time is over 666 min and the koff was under 2.5e-05 s⁻¹. For the same molecule, in assay [1] (25° C., Parameters C), the Target resident time was over 333 min and the dissociation rate constant (koff) was under 5e-05 s⁻¹.
For `CS(=N)(Cc1cc2nc(c1)OCCCOc1cc(F)ccc1-c1cc(ncc1F)N2)=NC#N` (racemic) [Example 3, (rac)-[{[15,19-difluoro-3,4-dihydro-2H,11H-10,6-(azeno)-12,16-(metheno)-1,5,11,13-benzodioxadiazacyclooctadecin-8-yl]methyl}(imino)methyl-λ^6-sulfanylidene]cyanamide], on CDK9/CycT1, 1.7 nM corresponded to half-maximal inhibition (IC50) and the “Selectivity high ATP CDK9” value was determined as 36.7. For the same molecule, in assay [1] (25° C., Parameters B), the Target resident time was over 666 min and the koff was under 2.5e-05 s⁻¹. Besides, in assay [1] (25° C., Parameters C), the Target resident time is over 333 min and the off-rate constant (koff) was under 5e-05 s⁻¹.
Turning to `CN=S(C)(=N)Cc1cc2nc(c1)OCCCOc1cc(F)ccc1-c1cc(ncc1F)N2` (racemic) [Example 4, (rac)-8-[(N,S-dimethylsulfonodiimidoyl)methyl]-15,19-difluoro-3,4-dihydro-2H,11H-10,6-(azeno)-12,16-(metheno)-1,5,11,13-benzodioxadiazacyclooctadecine], on CDK9/CycT1, the IC50 was determined as 3.7 nM and the “Selectivity high ATP CDK9” value is recorded as 168. Further, the koff in assay [1] (25° C., Parameters B) came out at 4.96e-05 s⁻¹. Besides, in assay [1] (25° C., Parameters D), the Target resident time came out at 70 min and the off-rate constant (koff) amounted to 0.000237 s⁻¹.
Consider `CS(=N)(Cc1cc2cc(c1)OCCCCOc1cc(F)ccc1-c1nc(ncc1F)N2)=NC1CC1` (racemic) [Example 9, (rac)-9-[(N-cyclopropyl-S-methylsulfonodiimidoyl)methyl]-16,20-difluoro-2,3,4,5-tetrahydro-12H-13,17-(azeno)-11,7-(metheno)-1,6,12,14-benzodioxadiazacyclononadecine], for which, on CDK9/CycT1, the IC50 was 2.3 nM and the “Selectivity high ATP CDK9” value came out at 433. In addition, in assay [1] (25° C., Parameters F), the Target resident time was 79* min and the koff was 0.000211 s⁻¹.
`CN=S(C)(=N)Cc1cc2cc(c1)OCCCCOc1cc(F)ccc1-c1nc(ncc1F)N2` (racemic) [Example 10, (rac)-9-[(N,S-dimethylsulfonodiimidoyl)methyl]-16,20-difluoro-2,3,4,5-tetrahydro-12H-13,17-(azeno)-11,7-(metheno)-1,6,12,14-benzodioxadiazacyclononadecine]: at CDK9/CycT1, half-maximal inhibition (IC50) was put at 3.4 nM and the “Selectivity high ATP CDK9” value turned out to be 485. Also, in assay [1] (37° C., Parameters E), the Target resident time is 20* min and the koff was 0.000833 s⁻¹.
For the molecule `CS(=N)(=N)Cc1cc2nc(c1)OCCCOc1cc(F)ccc1-c1cc(ncc1F)N2` [Example 1, 15,19-difluoro-8-[(S-methylsulfonodiimidoyl)methyl]-3,4-dihydro-2H,11H-10,6-(azeno)-12,16-(metheno)-1,5,11,13-benzodioxadiazacyclooctadecine], at CDK9/CycT1, the half-maximal inhibitory concentration (IC50) worked out at 2 nM and the “Selectivity high ATP CDK9” value came out at 70. In assay [1] (25° C., Parameters A), the Target resident time was over 333 min and the koff is under 5e-05 s⁻¹. Further, in assay [1] (25° C., Parameters B), the Target resident time is over 666 min and the koff was under 2.5e-05 s⁻¹.
`CS(=N)(=N)Cc1cc2cc(c1)OCCCCOc1cc(F)ccc1-c1nc(ncc1F)N2` [Example 5, 16,20-difluoro-9-[(S-methylsulfonodiimidoyl)methyl]-2,3,4,5-tetrahydro-12H-13,17-(azeno)-11,7-(metheno)-1,6,12,14-benzodioxadiazacyclononadecine] came in with an IC50 against CDK9/CycT1 of 2.1 nM. Besides, the “Selectivity high ATP CDK9” value at CDK9/CycT1 was found to be 590. The Target resident time is 49 min in assay [1] (25° C., Parameters C); 40 min in assay [1] (25° C., Parameters D); 21* min in assay [1] (37° C., Parameters E). Besides, the koff in assay [1] (25° C., Parameters C) worked out at 0.000338 s⁻¹; in assay [1] (25° C., Parameters D), 0.000412 s⁻¹; in assay [1] (37° C., Parameters E) it was 0.000809 s⁻¹.
On to `CS(=N)(=N)Cc1cc2cc(c1)OCCCCOc1c(ccc(F)c1F)-c1nc(ncc1F)N2` [Example 6, 16,20,21-trifluoro-9-[(S-methylsulfonodiimidoyl)methyl]-2,3,4,5-tetrahydro-12H-13,17-(azeno)-11,7-(metheno)-1,6,12,14-benzodioxadiazacyclononadecine], for which, on CDK9/CycT1, the IC50 was found to be 5.9 nM and the “Selectivity high ATP CDK9” value turned out to be 2118. For the same molecule, in assay [1] (25° C., Parameters B), the Target resident time was 9* min and the koff stood at 0.00188 s⁻¹.
Take `CS(=N)(=N)Cc1cc2cc(c1)OCCCCOc1c(F)cccc1-c1nc(ncc1F)N2` [Example 7, 16,21-difluoro-9-[(S-methylsulfonodiimidoyl)methyl]-2,3,4,5-tetrahydro-12H-13,17-(azeno)-11,7-(metheno)-1,6,12,14-benzodioxadiazacyclononadecine]: the “Selectivity high ATP CDK9” value on CDK9/CycT1 stood at 2132. In assay [1] (25° C., Parameters G), the Target resident time is on record as 11* min and the koff is 0.00154 s⁻¹.
For the molecule `CS(=N)(=N)Cc1cc2nc(c1C#N)OCCCOc1cc(F)ccc1-c1cc(ncc1F)N2` [Example 8, 15,19-difluoro-8-[(S-methylsulfonodiimidoyl)methyl]-3,4-dihydro-2H,11H-10,6-(azeno)-12,16-(metheno)-1,5,11,13-benzodioxadiazacyclooctadecine-7-carbonitrile], on CDK9/CycT1, the IC50 worked out at 1.5 nM and the “Selectivity high ATP CDK9” value is listed as 252. In assay [1] (25° C., Parameters G), the Target resident time was 51* min and the koff amounted to 0.000326 s⁻¹.
